Data published in US20250154121A1, “CYCLIC(ALKYL)(AMINO)ALKOXY-SUBSTITUTED ARYL-PYRONE COMPOUND AND USE THEREOF” (priority 2022, published 2025).
Read-outs that look alike come from different tables or passages of the source.

Experiments:
[1] = test system: Influenza A (H1N1) virus FM1 strain; assay: Mouse pneumonia model infected with influenza A (H1N1) virus FM1 strain (lung index); format: in vivo, ICR mice
Procedure: ICR mice were taken and randomly divided into: normal control group, model control group, ribavirin control group, compound 4, compound F1, compound F2, and compound F3 according to their weight class, and each drug was given in two dosage groups (10 mice in each group). Except for the normal control group, mice were slightly anesthetized with ether and infected with 15 LD50 H1N1 influenza virus liquid FM1 strain by nasal drops (30 μl per animal). The administration was started on the day of infection at 0.2 ml/10 g by gavage each time once a day for 4 days, and the normal control and model control groups were gavaged with distilled water under the same conditions. The mice were weighed and dissected on Day 5, and the lung was weighed to calculate lung index and lung index inhibition. The results were statistically processed using t-test for comparison between groups.
(§1) ICR mice were taken and randomly divided by weight class: normal control group, model control group, oseltamivir control group, compound 4, compound F4, compound F5, compound 5, and compound 7 according to their weight class, and each drug was given in two dosage groups (10 mice in each group). Except for the normal control group, mice were slightly anesthetized with ether and infected with 15 LD50 H1N1 influenza virus liquid (FM1/PR8 strain) by nasal drops (30 μl per each animal). The administration was started on the day of infection at 0.2 ml/10 g by gavage each time once a day for 4 days, and the normal control and model control groups were gavaged with distilled water under the same conditions. The mice were weighed and dissected on Day 5, and lung was weighed to calculate lung index and lung index inhibition. The results were statistically processed using t-test for comparison between groups.
(§2) ICR mice were taken and randomly divided into 9 groups according to the body weight: a normal control group, model control group, oseltamivir control group, and two dosage groups of Compound 9, Compound 12 and Compound 2, 10 mice in each group. Except the normal control group, mice were slightly anesthetized with ether and infected with 15 LD50 H1N1/PR8 influenza virus liquid by nasal drops at 30 μl per mouse. The administration was started on the day of infection, at 0.2 ml/10 g each time by gavage once a day for 4 days, and the normal control and model control groups were gavaged with distilled water under the same conditions. The mice were weighed and dissected on Day 5, and lungs were weighed to calculate lung index and lung index inhibition. The results were statistically processed using t-test for comparison between groups.

[2] = test system: Human Coronavirus 229E (HCoV-229E); assay: animal or person; format: in vivo
[3] = test system: Sendai strain of parainfluenza virus; format: in vivo; settings: Table 11 (Example 24)
[4] = test system: Influenza A (H1N1) virus PR8 strain; assay: Mouse pneumonia model infected with influenza A (H1N1) virus PR8 strain (lung index); format: in vivo, ICR mice
Procedure: as §1, §2

[5] = Influenza A virus, H1N1, po, 96 h, Table 2 (Example 14), 20 mg/kg gavage once a day for 4 days, read-out: inhibition rate (%)
[6] = Influenza A virus, H1N1, po, 96 h, Table 2 (Example 14), 40 mg/kg gavage once a day for 4 days, read-out: inhibition rate (%)
[7] = Table 2 (Example 14), 20 mg/kg gavage once a day for 4 days
[8] = Table 2 (Example 14), 40 mg/kg gavage once a day for 4 days
[9] = Human coronavirus 229E, in Mus musculus, po, 96 h, Table 5 (Example 16), 7.5 mg/kg/d gavage for 4 days, read-out: inhibition rate (%)
[10] = Human coronavirus 229E, in Mus musculus, po, 96 h, Table 5 (Example 16), 15 mg/kg/d gavage for 4 days, read-out: inhibition rate (%)
[11] = Human coronavirus 229E, in Mus musculus, po, 96 h, Table 5 (Example 16), 30 mg/kg/d gavage for 4 days, read-out: inhibition rate (%)
[12] = Table 5 (Example 16), 7.5 mg/kg/d gavage for 4 days
[13] = Table 5 (Example 16), 15 mg/kg/d gavage for 4 days
[14] = Table 5 (Example 16), 30 mg/kg/d gavage for 4 days
[15] = Table 13 (Example 25), 27.5 mg/kg/d gavage for 4 days
[16] = Table 12 (Example 25), 27.5 mg/kg/d gavage for 4 days

Compound	inhibition in vivo at 20 mg/kg [1, 5]	inhibition in vivo at 40 mg/kg [1, 6]	lung index [1, 7]	lung index [1, 8]	inhibition in vivo at 7.5 mg/kg/day [2, 9]	inhibition in vivo at 15 mg/kg/day [2, 10]	inhibition in vivo at 30 mg/kg/day [2, 11]	lung index [2, 12]	lung index [2, 13]	lung index [2, 14]	also measured
CC(=O)NCCOc1ccc2c(=O)c(-c3ccccc3)coc2c1 [Compound F5, reference compound]	-31.3%	0.35%	1.22 ± 0.11	1.10 ± 0.24	-41%	-72%	17%	0.82 ± 0.08 g lung weight × 100/g body weight	0.85 ± 0.08 g lung weight × 100/g body weight	0.77 ± 0.11 g lung weight × 100/g body weight	–
COCCOc1ccc2c(=O)c(-c3ccccc3)coc2c1 [Compound F4, reference compound]	-9.25%	-29.3%	1.14 ± 0.12	1.22 ± 0.13	-86%	-64%	37.2%	0.86 ± 0.07 g lung weight × 100/g body weight	0.84 ± 0.07 g lung weight × 100/g body weight	0.75 ± 0.13 g lung weight × 100/g body weight	–
CCC(=O)N(CCOc1ccc2c(=O)c(-c3ccccc3)coc2c1)C1CC1 [Compound 11]	–	–	–	–	–	–	–	–	–	–	inhibition in vivo at 7.5 mg/kg/day ([2]; Human coronavirus 229E, in Mus musculus, po, 96 h, Table 10 (Example 23), 7.5 mg/kg/d gavage for 4 days, read-out: inhibition rate (%)): 14.1%; lung index ([2]; Table 10 (Example 23), 7.5 mg/kg/d gavage for 4 days): 0.87 ± 0.08 g lung weight × 100/g body weight; inhibition rate % ([3]; 7.5 mg/kg/d gavage for 4 days): −20.73%; lung index ([3]; 7.5 mg/kg/d gavage for 4 days): 0.87 ± 0.04 Lung weight * 100/body weight; inhibition rate % ([3]; 15 mg/kg/d gavage for 4 days): 6.19%; lung index ([3]; 15 mg/kg/d gavage for 4 days): 0.83 ± 0.05 Lung weight * 100/body weight
CC1(NCCOc2ccc3c(=O)c(-c4ccccc4)coc3c2)CC1 [Compound 5]	-25.1%	8.44%	1.20 ± 0.16	1.07 ± 0.21	22.7%	-17%	-7%	0.76 ± 0.08 g lung weight × 100/g body weight	0.80 ± 0.10 g lung weight × 100/g body weight	0.79 ± 0.08 g lung weight × 100/g body weight	–
CCOC(=O)C1=C[C@@H](OC(CC)CC)[C@H](NC(C)=O)[C@@H](N)C1 [Oseltamivir, Oseltamivir phosphate, reference compound]	–	–	–	–	–	–	–	–	–	–	inhibition in vivo at 27.5 mg/kg ([1]; Influenza A virus, H1N1, po, 96 h, Table 2 (Example 14), 27.5 mg/kg gavage once a day for 4 days, read-out: inhibition rate (%)): 62.1%; lung index ([1]; Table 2 (Example 14), 27.5 mg/kg gavage once a day for 4 days): 0.86 ± 0.21; inhibition rate % [1, 15]: 64.57%; lung index [1, 15]: 0.74 ± 0.065 Lung weight * 100/body weight; inhibition rate % ([4]; Table 3 (Example 14), 27.5 mg/kg gavage once a day for 4 days): 58.89%; inhibition rate % [4, 16]: 88.97%; lung index [4, 16]: 0.71 ± 0.069 Lung weight * 100/body weight
COc1ccc(-c2coc3cc(O[C@@H]4OC(CO)[C@@H](O)C(O)C4O)ccc3c2=O)cc1O (stereo partly drawn) [Compound F2, reference compound]	–	–	–	–	–	–	–	–	–	–	inhibition in vivo at 25 mg/kg ([1]; Influenza A virus, H1N1, po, 96 h, Table 1 (Example 13), 25 mg/kg gavage once a day for 4 days, read-out: inhibition rate (%)): 17.1%; inhibition in vivo at 50 mg/kg ([1]; Influenza A virus, H1N1, po, 96 h, Table 1 (Example 13), 50 mg/kg gavage once a day for 4 days, read-out: inhibition rate (%)): 19.1%; lung index ([1]; Table 1 (Example 13), 25 mg/kg gavage once a day for 4 days): 1.13 ± 0.18; lung index ([1]; Table 1 (Example 13), 50 mg/kg gavage once a day for 4 days): 1.12 ± 0.17; inhibition in vivo at 40 mg/kg/day ([2]; Human coronavirus 229E, in Mus musculus, po, 96 h, Table 4 (Example 15), 40 mg/kg/d gavage for 4 days, read-out: inhibition rate (%)): 1.45%; inhibition in vivo at 50 mg/kg/day ([2]; Human coronavirus 229E, in Mus musculus, po, 96 h, Table 4 (Example 15), 50 mg/kg/d gavage for 4 days, read-out: inhibition rate (%)): 10.6%; lung index ([2]; Table 4 (Example 15), 40 mg/kg/d gavage for 4 days): 0.84 ± 0.05 g lung weight × 100/g body weight; lung index ([2]; Table 4 (Example 15), 50 mg/kg/d gavage for 4 days): 0.82 ± 0.06 g lung weight × 100/g body weight
